In publication PMC11843658 (Journal of Enzyme Inhibition and Medicinal Chemistry, 2025):
Like-named read-outs stand apart in the source and are kept apart here. Values belong to the molecule of their own block, whether it stands above or below them.

How the values were obtained:
[1] = test system: ACHN cells; parameters: method as in PMID 33527838; settings: cited from earlier work
[2] = test system: ovarian cancer cells; parameters: method as in PMID 31264855; settings: cited from earlier work
[3] = test system: glioblastoma cells; parameters: method as in PMID 29683097; settings: cited from earlier work
[4] = test system: MOLP-8 cells; parameters: method as in PMID 36476642; settings: myeloma MOLP-8 cells; read-out: IC50, antiproliferative activity; cited from earlier work
[5] = test system: KMS-12-PE cells; parameters: method as in PMID 36476642; settings: myeloma KMS-12-PE cells; read-out: IC50, antiproliferative activity; cited from earlier work
[6] = test system: NB cells; parameters: method as in PMID 36223680; settings: cited from earlier work
[7] = test system: diffuse large B-cell lymphoma cells; parameters: method as in PMID 26002965; settings: cited from earlier work
[8] = test system: H3K4me1/2; settings: cited from earlier work
[9] = target: T1, LSD1 (Homo sapiens, UniProt O60341); parameters: purchased Cayman Chemical (Ann Arbor, MI); settings: cited from earlier work
[10] = test system: HepG2 cells; assay: Xenograft study, HepG2 cells in nude mice; format: in vivo, BALB/c nude mice; settings: 10 mg/kg by gavage every day for 21 days, nude mice bearing HepG2 cells
Description: Tumorigenesis in nude mice could stimulate the growth process of human tumours in the body, and could be used to develop and evaluate the effectiveness and safety of anti-cancer candidates. Therefore, xenograft studies in nude mice were performed to evaluate anticancer effects of compound 14. Animals were treated according to the protocols established by the ethics committee of The Fourth Clinical College of Xinxiang Medical University. The in vivo experiments were carried out in accordance with the approved guidelines and approved by the ethics committee of The Fourth Clinical College of Xinxiang Medical University. The number of ethics approvals is XMU-2024–01-03. All authors have adhered to the ARRIVE guidelines (https://arriveguidelines.org/). BALB/c nude mice were purchased from Beijing Huafukang Biotechnology Co., LTD (Beijing, China), and fifteen mice were used in this study (aged 6–7 weeks and weighing 20–30 g). Before the animal experiments, all nude mice were given a week to adjust to the clean, hygienic and specific-pathogen-free environment. All nude mice were taken care of instainless steel cages with a constant temperature of 60% humidity, 25 °C and a 12/12 light/dark cycle. Nude mice were fed with refreshing water and nourishing food everyday.
Then, nude mice were anaesthetised with 2% isoflurane and 0.3 l/min of oxygen by the small animal anaesthesia machine (Beijing Yi Zejia Technology Co., LTD, Beijing, China). 3 × 10^5 human liver cancer HepG2 cells were subcutaneously injected in the right armpit of mice. Until the volume of tumours reached 60–100 mm^3, all mice were randomly divided into three groups and each group had five nude mice. An amount of 60 mg/kg of compound 14, 10 mg/kg of seclidemstat and water as the control group were given by gavage every day for 21 days. Weight of mice and tumour volume were measured every 3 d. All nude mice in this xenograft studies were performed euthanizing procedures using a carbon dioxide euthanasia chamber (Shanghai Yuyan Instruments Co., Ltd, Shanghai, China). The flow rate of carbon dioxide was adjusted at 20% of the volume of the euthanasia chamber per minute. Once nude mice were unconscious, the flow rate was increased to 100% of the euthanasia chamber volume per minute. Death was confirmed by immobility, non-breathing and pupil enlargement. Tumours form BALB/c nude mice were isolated and weighed.

[11] = target: T1, LSD1; assay: LSD1 screening assay kit (enzymatic activity); format: biochemical; parameters: purchased Cayman Chemical (Ann Arbor, MI); settings: fluorescence, read-out: IC50 against LSD1
Description: After the incubation for 30 min at 37 °C, a mixture of horseradish peroxidase solution (20 μl) and fluorometric substrate solution (10 μl) was added to each well. Then, the 96-well plate was incubated for 15 min at 37 °C. Finally, the fluorescence of each well in the 96-well plate was measured at an emission wavelength of 590 nm and an excitation wavelength of 530 nm by a fluorimeter (Agilent Technologies Inc., Palo Alto, CA). Seclidemstat, a famous LSD1 inhibitor, was used as the control drug in this assay.

[12] = test system: HepG2; parameters: method as in earlier work; settings: HepG2 cell line; read-out: IC50, antiproliferative activity; cited from earlier work
[13] = test system: PC3; parameters: method as in earlier work; settings: PC3 cell line; read-out: IC50, antiproliferative activity; cited from earlier work
[14] = test system: MCF-7; settings: read-out: IC50, antiproliferative activity, cited from earlier work
[15] = test system: C42B cells; assay: CCK8 assay, C42B prostate cancer cells; format: cell-based; settings: Homo sapiens, CCK8, control drug, read-out: IC50, antiproliferative activity
Description: (§1) C42B, PC3, Caco-2, HepG2, MCF7, HL-60, 8505 C, OVCAR-3, and A549 were cultured to screen the broad-spectrum antiproliferative activity of compound 14. For above cell lines, three thousand cells per well were seeded in the 96-well plate and treated by compound 14 for 48 or 72 h at different concentrations (0, 5, 10, and 20 μM). In addition, HepG2, HEP3B, HUH6, and HUH7 were cultured to screen its antiproliferative activity against liver cancer cell lines. For these liver cancer cell lines, two thousand cells per well were seeded in the 96-well plate and treated by compound 14 for 48 h at different concentrations (0, 0.625, 1.25, 2.5, and 5 μM). Then, 10 μl of CCK8 was added into each well and cells were incubated in a humidified atmosphere of 5% CO2 at 37 °C for 4 h. The 96-well plate was measured with a microplate reader (Bio-Tek, San Diego, CA) at a wavelength of 450 nm to calculate IC50 values.

[16] = test system: PC3 cells; assay: CCK8 assay, PC3 prostate cancer cells; format: cell-based; settings: Homo sapiens, PC-3, CCK8, control drug, read-out: IC50, antiproliferative activity
Description: as §1

[17] = test system: Caco-2 cells; assay: CCK8 assay, Caco-2 colon cancer cells; format: cell-based; settings: Homo sapiens, CCK8, control drug, read-out: IC50, antiproliferative activity
Description: as §1

[18] = test system: HepG2 cells; assay: CCK8 assay, HepG2 liver cancer cells; format: cell-based; settings: Homo sapiens, CCK8, control drug, read-out: IC50, antiproliferative activity
Description: as §1

[19] = test system: MCF7 cells; assay: CCK8 assay, MCF7 breast cancer cells; format: cell-based; settings: Homo sapiens, CCK8, control drug, read-out: IC50, antiproliferative activity
Description: as §1

[20] = test system: HL-60 cells; assay: CCK8 assay, HL-60 leukaemia cells; format: cell-based; settings: Homo sapiens, CCK8, control drug, read-out: IC50, antiproliferative activity
Description: as §1

[21] = test system: 8505 C cells; assay: CCK8 assay, 8505 C thyroid cancer cells; format: cell-based; settings: Homo sapiens, CCK8, control drug, read-out: IC50, antiproliferative activity
Description: as §1

[22] = test system: OVCAR-3 cells; assay: CCK8 assay, OVCAR-3 ovarian cancer cells; format: cell-based; settings: Homo sapiens, CCK8, control drug, read-out: IC50, antiproliferative activity
Description: as §1

[23] = test system: A549 cells; assay: CCK8 assay, A549 lung cancer cells; format: cell-based; settings: Homo sapiens, CCK8, control drug, read-out: IC50, antiproliferative activity
Description: as §1

[24] = test system: THP-1 cells; parameters: method as in PMID 35525212; settings: read-out: IC50, antiproliferative activity; cited from earlier work
[25] = test system: various cell lines; parameters: method as in PMID 26890117; settings: cited from earlier work
[26] = test system: HCT-116 cells; parameters: method as in PMID 33773285; settings: read-out: IC50, antiproliferative activity; cited from earlier work

SMILES: O=C(c1ccc(OCCN2CCCCC2)cc1)c1c(-c2ccc(O)cc2)sc2cc(O)ccc12 [Raloxifene]
migration of ACHN cells [1]: inhibits migration against ACHN cells

SMILES: COc1cccc(-c2cccc(NC(=O)CCc3cccc4c3B(O)OC4)c2)c1 [Compound 12]
colony formation and apoptosis [2]: significantly inhibits colony formation and induces apoptosis

SMILES: CCCCCCCCCCCCSC(=O)CC1CC(=O)NC(=O)C1 [Compound 7]
cell cycle and clonogenic capacity [3]: induces cell cycle arrest and reduces clonogenic capacity

SMILES: O=C1CCC(CS(=O)(=O)Cc2ccccc2)C(=O)N1 (stereo not shown) [Compound 10]
IC50 [4]: 5.52 µM
IC50 [5]: 5.17 µM

SMILES: O=S(=O)(Nc1ccc(Br)cc1-c1nn[nH]n1)c1ccc(-c2ccc(Cl)cc2)cc1 [Compound 3]
synergistic effect with bortezomib [6]: displays the synergistic effect against NB cells with bortezomib

SMILES: Cc1nc2cccc(N)c2c(=O)n1C1CCC(=O)NC1=O (stereo not shown) [Compound 9]
apoptosis and proliferation [7]: induces apoptosis and inhibits proliferation

SMILES: COc1ccc(CN(C(=O)CSC(=S)N2CCN(c3ccc(N)cc3)CC2)c2cc(OC)c(OC)c(OC)c2)cc1O [Compound 6]
accumulation of H3K4me1/2 [8]: induces the accumulation of H3K4me1/2
LSD1 inhibition [9]: inhibits LSD1

SMILES: C/C(=N\NC(=O)c1cccc(S(=O)(=O)N2CCN(C)CC2)c1)c1cc(Cl)ccc1O [Seclidemstat]
growth of subcutaneous tumours [10]: inhibited the growth of subcutaneous tumours
IC50 [11]: 0.02 ± 0.01 µM

SMILES: O=C1CCC(NC(=O)CSc2nnc3c(=O)[nH]c4ccccc4n23)C(=O)N1 (stereo not shown) [Compound 8]
IC50 [12]: 9.81 µM
IC50 [13]: 15.5 µM
IC50 ([14]; MCF-7 cell line): 10.1 µM

IC50 [15]: 16.7 µM
IC50 [16]: 12.3 µM
IC50 [17]: > 20 µM
IC50 [18]: 9.87 µM
IC50 [19]: > 20 µM
IC50 [20]: 7.25 µM
IC50 [21]: 12.4 µM
IC50 [22]: > 20 µM
IC50 [23]: > 20 µM
SMILES: O=c1[nH]cc(F)c(=O)[nH]1 [5-Fluorouracil]

SMILES: COc1cc2nc(NCCCN(C)C)nc(NC3CCN(Cc4ccc5ccccc5c4)CC3)c2cc1OC [Compound 2]
IC50 [24]: 0.3 µM
expression levels of H3K4me2 [8]: increases the expression levels of H3K4me2

SMILES: COc1cc(NC(=O)CCSc2nc3ccc(Cl)cc3c(=O)n2-c2ccc(F)cc2)cc(OC)c1OC [Compound 13]
anticancer effects [25]: exhibits extensive-spectrum anticancer effects

SMILES: Cc1ccc(S(=O)(=O)CCC(=O)Nc2ccc(S(N)(=O)=O)cc2)cc1 [Compound 11]
IC50 ([14]; MCF-7 cells): 0.67 µM
IC50 [26]: 0.57 µM
